From patent publication US20250255876A1, “COMPOSITIONS AND METHODS FOR CANCER TREATMENT” (ARIEL SCIENTIFIC INNOVATIONS LTD., priority 2021, published 2025)

Target: MAD2L2-Rev1 complex (Homo sapiens, UniProt Q9UI95)
Test: Proximity ligation assay (PLA) of MAD2L2-Rev1 binding
Assay type: cell-based
Description: FIG. 16 is a bar graph showing that c #3 reduces Rev1-MAD2L2 interaction. PLA on cells treated with 10 μM cisplatin and 100 μM of c #3 for 24 h. In each analyzed field, cells and foci were counted separately and the ratio of foci/cell was calculated. Each dot represents the average of foci/cell in one analyzed field. SD=1. The P-value was calculated by a one-tailed t-test.
#3 disturbs MAD2L2-Rev1 complex formation. Detection of MAD2L2-Rev1 binding using the proximity ligation assay (PLA), which allows endogenous detection of protein-protein interactions. To enrich for MAD2L2-Rev1 foci, cells were co-treated with 10 μM cisplatin and 100 μM c #3 for 24h. Next, the PLA reaction was performed and foci, representing the MAD2L2-Rev1 complex, were counted.

MAD2L2-Rev1 complex, sequence (Q9UI95 whole entry, one chain of several): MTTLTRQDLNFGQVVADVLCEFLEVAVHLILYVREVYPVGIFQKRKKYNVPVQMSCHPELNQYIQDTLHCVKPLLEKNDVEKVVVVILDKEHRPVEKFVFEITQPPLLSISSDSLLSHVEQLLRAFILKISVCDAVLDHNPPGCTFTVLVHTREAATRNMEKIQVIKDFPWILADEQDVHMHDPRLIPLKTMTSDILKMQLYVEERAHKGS

Cc1oc(-c2ccco2)nc1CC(=O)N[C@@H](C(=O)O)c1ccccc1 [Compound 3]
ratio of MAD2L2-Rev1 PLA foci per cell, co-treatment (10 μM cisplatin + 100 μM c #3, 24 h, compared to cisplatin alone): reduced ratio of foci per cell
MAD2L2-Rev1 complex formation (PLA), c #3 alone (c #3 alone compared to DMSO): no effect on complex formation when DNA-damage is not induced
